Assay results as given in patent US5800809A, “Non-crosslinked acrylic polymers and non-crosslinked anion exchange resins” (priority 1992, dated 1998).

Key:
[1] = rat, in vivo
[2] = set-up: species or system CD-1 mouse; conditions: mouse, in vivo
Experimental: (3) Micronucleus test on mice.
test on mice HBS-107 was given orally at a dosage of
was prepared after 24, 48 and 72 hours

[3] = rabbit, in vivo

## polyacryloyloxyethyl-N,N-dimethylbenzyl ammonium salt [Example 1]
[1]
  urine volume, Na^+ and Cl^-: Significant reduction
[2]
  induction of micronucleus formation: No induction
[3]
  irritation (in words): not strong
